Results on 9 molecules are retold here after ChEMBL document CHEMBL1145498, “A systematic interaction map of validated kinase inhibitors with Ser/Thr kinases” (Proc Natl Acad Sci U S A, 2007).

Test [1] has as its target Calcium/calmodulin-dependent protein kinase type II subunit beta (Homo sapiens) (UniProt Q13554).
In test [2] the target is Cyclin-dependent kinase 6 (Homo sapiens) (UniProt Q00534).
Test [3] deals with Casein kinase I isoform gamma-2 (Homo sapiens) (UniProt P78368).
The target in test [4] is Death-associated protein kinase 3 (Homo sapiens) (UniProt O43293).
Chain of Death-associated protein kinase 3 (Homo sapiens) (O43293 whole entry, looked up): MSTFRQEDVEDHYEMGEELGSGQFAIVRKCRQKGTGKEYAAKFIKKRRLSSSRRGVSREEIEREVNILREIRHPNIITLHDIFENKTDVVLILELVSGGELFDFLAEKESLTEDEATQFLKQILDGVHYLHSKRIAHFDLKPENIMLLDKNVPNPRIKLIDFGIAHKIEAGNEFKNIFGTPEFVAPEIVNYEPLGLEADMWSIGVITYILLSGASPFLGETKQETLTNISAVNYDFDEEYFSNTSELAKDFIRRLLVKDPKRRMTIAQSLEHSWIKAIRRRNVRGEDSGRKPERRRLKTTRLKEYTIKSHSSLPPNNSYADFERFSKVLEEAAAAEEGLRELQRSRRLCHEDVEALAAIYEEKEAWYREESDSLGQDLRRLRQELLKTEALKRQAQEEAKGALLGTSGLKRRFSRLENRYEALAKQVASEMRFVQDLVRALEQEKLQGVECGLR
For test [5], the target named is Glycogen synthase kinase-3 beta (Homo sapiens, UniProt P49841).
Chain of Glycogen synthase kinase-3 beta (P49841 whole entry, looked up): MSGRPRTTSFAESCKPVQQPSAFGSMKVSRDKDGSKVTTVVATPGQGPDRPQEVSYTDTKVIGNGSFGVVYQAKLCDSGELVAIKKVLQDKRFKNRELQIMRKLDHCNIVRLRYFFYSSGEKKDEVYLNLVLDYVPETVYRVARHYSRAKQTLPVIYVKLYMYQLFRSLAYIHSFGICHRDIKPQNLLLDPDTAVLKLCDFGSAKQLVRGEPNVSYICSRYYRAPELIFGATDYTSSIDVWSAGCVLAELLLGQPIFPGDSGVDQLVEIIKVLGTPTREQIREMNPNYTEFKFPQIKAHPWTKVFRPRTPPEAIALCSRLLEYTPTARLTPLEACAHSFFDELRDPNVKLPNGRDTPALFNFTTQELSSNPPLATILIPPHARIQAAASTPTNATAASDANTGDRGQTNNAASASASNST
Test [6] addresses Tyrosine-protein kinase JAK1 (Homo sapiens) (UniProt P23458).
Test [7] concerns the target T1, Dual specificity mitogen-activated protein kinase kinase 6 (Homo sapiens) (UniProt P52564).
T1 sequence (whole entry): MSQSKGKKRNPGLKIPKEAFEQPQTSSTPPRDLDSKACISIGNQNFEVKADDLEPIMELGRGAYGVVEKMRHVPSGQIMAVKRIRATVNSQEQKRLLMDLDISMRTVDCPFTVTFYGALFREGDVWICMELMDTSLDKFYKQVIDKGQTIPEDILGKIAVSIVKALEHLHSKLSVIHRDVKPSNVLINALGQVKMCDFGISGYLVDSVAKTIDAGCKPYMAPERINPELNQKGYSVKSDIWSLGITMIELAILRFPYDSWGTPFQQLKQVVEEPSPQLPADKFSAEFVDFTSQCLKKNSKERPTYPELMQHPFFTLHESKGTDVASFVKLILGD

The target in test [8] is T2, Mitogen-activated protein kinase kinase kinase 5 (Homo sapiens) (UniProt Q99683).
T2 sequence (whole entry): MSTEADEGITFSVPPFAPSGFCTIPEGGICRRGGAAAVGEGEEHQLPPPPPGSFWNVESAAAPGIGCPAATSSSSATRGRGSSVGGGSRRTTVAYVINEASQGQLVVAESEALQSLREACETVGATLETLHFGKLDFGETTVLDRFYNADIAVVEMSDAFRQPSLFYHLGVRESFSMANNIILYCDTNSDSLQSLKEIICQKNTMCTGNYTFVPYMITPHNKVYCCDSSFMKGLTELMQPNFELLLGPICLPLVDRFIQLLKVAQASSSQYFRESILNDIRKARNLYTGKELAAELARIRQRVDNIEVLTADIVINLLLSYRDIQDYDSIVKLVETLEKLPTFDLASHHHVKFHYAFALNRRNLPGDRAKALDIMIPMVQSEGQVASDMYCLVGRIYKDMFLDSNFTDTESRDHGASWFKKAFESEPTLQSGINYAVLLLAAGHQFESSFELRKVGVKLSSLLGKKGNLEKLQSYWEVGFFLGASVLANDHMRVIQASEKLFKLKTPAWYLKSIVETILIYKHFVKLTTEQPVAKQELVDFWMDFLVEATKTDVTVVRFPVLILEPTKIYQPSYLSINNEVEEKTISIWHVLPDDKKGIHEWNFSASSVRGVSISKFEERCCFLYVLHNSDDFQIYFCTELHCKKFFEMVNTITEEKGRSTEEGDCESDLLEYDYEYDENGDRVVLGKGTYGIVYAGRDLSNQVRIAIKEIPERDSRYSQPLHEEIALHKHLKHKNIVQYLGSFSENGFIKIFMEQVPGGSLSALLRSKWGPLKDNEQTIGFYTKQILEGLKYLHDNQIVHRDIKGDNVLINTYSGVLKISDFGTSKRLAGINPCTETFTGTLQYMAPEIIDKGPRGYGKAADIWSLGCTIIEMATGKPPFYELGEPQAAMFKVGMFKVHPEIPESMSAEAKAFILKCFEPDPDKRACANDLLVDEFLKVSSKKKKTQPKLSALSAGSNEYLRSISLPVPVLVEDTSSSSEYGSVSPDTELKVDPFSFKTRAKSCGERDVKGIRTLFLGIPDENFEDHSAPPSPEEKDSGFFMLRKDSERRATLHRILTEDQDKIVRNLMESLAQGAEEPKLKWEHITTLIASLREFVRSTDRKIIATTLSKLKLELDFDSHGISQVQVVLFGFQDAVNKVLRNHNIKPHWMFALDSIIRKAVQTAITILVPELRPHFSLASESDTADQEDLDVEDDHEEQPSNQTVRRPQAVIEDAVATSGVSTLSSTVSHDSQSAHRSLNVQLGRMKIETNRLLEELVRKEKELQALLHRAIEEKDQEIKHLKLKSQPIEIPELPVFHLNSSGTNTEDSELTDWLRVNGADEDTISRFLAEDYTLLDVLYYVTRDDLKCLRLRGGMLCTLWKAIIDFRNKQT

The target in test [9] is Mitogen-activated protein kinase 6 (Homo sapiens) (UniProt Q16659).
Chain of Mitogen-activated protein kinase 6 (Homo sapiens) (Q16659 whole entry): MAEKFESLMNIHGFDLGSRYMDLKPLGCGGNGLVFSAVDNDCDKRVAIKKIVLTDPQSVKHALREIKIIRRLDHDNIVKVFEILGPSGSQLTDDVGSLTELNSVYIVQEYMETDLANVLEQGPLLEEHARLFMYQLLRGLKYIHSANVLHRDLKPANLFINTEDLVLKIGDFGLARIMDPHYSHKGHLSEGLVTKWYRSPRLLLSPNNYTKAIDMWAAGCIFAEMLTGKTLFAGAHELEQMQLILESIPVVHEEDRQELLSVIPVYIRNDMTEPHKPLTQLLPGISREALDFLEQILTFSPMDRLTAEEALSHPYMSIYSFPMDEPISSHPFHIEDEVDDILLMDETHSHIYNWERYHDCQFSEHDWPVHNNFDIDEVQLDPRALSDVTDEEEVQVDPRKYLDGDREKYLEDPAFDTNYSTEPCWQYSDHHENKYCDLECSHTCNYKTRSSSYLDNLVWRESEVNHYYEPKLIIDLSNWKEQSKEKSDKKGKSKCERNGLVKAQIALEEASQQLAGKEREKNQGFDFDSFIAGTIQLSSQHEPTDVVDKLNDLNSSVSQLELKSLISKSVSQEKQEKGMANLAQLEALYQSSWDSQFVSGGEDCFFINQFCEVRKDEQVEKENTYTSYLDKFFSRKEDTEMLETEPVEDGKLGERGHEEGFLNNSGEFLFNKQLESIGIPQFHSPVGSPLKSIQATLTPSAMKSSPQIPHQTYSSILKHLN
Test [10] addresses Serine/threonine-protein kinase 26 (Homo sapiens) (UniProt Q9P289).
For test [11], the target named is Serine/threonine-protein kinase PAK 4 (Homo sapiens) (UniProt O96013).
The target of test [12] is Serine/threonine-protein kinase pim-3 (Homo sapiens) (UniProt Q86V86).
Test [13] addresses cAMP-dependent protein kinase catalytic subunit alpha (Homo sapiens) (UniProt P17612).
Test [14] addresses Ribosomal protein S6 kinase alpha-3 (Homo sapiens) (UniProt P51812).
For test [15], the target named is T3, Serine/threonine-protein kinase VRK1 (Homo sapiens) (UniProt Q99986).
T3 sequence (whole entry): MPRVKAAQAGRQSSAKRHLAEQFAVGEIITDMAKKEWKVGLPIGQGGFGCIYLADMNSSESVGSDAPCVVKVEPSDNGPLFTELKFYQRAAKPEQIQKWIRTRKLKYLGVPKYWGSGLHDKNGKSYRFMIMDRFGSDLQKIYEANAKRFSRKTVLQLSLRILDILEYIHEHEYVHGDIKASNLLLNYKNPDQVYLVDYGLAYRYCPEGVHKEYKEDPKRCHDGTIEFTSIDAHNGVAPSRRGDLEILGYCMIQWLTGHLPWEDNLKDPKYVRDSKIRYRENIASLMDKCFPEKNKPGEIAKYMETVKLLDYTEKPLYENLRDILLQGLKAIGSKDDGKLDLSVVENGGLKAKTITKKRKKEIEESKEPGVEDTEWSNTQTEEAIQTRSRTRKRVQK

Chain of Ribosomal protein S6 kinase alpha-3 (Homo sapiens) (P51812 whole entry): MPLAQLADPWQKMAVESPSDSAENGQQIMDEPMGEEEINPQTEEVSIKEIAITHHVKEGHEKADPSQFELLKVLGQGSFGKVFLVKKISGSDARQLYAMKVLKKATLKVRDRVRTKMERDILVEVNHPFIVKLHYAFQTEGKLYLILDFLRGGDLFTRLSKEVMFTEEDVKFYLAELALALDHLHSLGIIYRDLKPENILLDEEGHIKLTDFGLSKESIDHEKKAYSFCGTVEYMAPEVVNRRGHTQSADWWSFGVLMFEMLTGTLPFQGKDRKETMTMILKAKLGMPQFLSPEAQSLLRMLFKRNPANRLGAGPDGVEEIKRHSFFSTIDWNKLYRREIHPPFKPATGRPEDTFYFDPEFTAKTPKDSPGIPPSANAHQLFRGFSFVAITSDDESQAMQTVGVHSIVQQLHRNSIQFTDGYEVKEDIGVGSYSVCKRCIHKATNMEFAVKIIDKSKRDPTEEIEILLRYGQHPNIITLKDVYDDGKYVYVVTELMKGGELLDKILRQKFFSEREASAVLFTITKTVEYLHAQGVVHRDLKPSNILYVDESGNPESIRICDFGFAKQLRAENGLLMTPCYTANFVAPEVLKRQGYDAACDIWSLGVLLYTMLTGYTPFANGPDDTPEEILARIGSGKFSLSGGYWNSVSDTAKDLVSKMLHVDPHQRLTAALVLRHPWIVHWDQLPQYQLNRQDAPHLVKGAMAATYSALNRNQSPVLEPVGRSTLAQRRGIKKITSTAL
Chain of Calcium/calmodulin-dependent protein kinase type II subunit beta (Homo sapiens) (Q13554 whole entry): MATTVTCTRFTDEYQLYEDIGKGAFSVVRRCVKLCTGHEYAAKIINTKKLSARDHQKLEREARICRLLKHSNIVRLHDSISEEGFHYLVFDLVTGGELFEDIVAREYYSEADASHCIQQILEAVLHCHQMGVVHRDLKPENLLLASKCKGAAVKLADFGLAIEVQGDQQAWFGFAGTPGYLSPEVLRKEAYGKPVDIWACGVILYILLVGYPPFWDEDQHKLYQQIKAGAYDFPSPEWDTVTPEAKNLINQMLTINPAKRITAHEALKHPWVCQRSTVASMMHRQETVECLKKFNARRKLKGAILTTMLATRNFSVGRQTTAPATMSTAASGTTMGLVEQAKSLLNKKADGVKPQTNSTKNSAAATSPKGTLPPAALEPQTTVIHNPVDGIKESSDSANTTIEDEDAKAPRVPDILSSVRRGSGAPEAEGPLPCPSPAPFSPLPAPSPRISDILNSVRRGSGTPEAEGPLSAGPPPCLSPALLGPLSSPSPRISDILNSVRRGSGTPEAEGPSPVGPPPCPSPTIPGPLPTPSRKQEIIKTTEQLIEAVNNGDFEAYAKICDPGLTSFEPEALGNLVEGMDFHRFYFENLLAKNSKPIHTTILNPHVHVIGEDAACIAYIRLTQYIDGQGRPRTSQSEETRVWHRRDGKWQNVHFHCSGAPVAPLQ
Chain of Cyclin-dependent kinase 6 (Homo sapiens) (Q00534 whole entry, canonical isoform): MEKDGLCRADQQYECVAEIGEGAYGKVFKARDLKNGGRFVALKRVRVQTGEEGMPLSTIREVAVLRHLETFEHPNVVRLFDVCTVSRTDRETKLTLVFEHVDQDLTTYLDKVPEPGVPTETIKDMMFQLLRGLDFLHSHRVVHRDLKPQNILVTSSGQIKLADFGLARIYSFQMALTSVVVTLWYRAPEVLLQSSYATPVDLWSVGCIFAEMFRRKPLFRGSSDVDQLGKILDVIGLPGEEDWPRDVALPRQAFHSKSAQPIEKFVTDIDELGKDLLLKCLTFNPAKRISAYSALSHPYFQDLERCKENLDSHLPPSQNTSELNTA
Chain of Casein kinase I isoform gamma-2 (Homo sapiens) (P78368 whole entry, looked up, canonical isoform): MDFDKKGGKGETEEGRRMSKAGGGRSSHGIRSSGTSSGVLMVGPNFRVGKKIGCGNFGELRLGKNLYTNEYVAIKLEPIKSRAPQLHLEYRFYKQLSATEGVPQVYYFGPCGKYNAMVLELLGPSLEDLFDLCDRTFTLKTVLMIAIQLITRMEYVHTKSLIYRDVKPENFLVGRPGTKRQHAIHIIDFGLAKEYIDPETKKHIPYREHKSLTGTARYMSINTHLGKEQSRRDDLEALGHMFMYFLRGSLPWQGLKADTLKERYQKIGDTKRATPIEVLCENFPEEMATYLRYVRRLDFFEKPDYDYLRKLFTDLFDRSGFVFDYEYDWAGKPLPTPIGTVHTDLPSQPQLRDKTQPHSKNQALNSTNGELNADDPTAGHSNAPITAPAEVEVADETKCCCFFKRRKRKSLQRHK
Chain of Serine/threonine-protein kinase 26 (Homo sapiens) (Q9P289 2-416 limits assumed): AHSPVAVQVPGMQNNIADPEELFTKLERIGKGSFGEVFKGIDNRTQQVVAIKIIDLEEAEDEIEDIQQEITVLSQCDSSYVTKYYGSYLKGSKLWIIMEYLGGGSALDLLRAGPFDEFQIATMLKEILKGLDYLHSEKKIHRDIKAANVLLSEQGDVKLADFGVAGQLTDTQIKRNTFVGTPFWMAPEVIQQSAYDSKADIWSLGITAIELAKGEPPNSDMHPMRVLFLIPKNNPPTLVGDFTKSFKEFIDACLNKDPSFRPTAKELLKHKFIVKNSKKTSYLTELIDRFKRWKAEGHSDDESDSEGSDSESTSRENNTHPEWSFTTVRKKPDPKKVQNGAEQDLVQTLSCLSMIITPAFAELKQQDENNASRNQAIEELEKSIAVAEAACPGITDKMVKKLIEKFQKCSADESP

As to `O=C1C(Cl)=C(N2C(=O)CCC2=O)C(=O)c2ccccc21`, the ΔTm (commonly the shift of the melting midpoint relative to a reference) in [1] is -1.5 °C; in test [2], 1.6 °C; in test [3] it was 0.1 °C; in [4] it was -7.6 °C; in [5], -3.5 °C; in [6], -2.9 °C. For the same molecule, the ΔTm in test [7] was -11 °C; in [8], -1.1 °C; in test [9], -1.1 °C; in test [10], -1.4 °C; in test [11], -0.4 °C; in test [12], -1.7 °C. In addition, the ΔTm in test [13] is -0.2 °C; in [14] it was -2.4 °C; in [15], -0.6 °C.

On to `COc1cc(C[C@H]2C(=O)OC[C@@H]2Cc2ccc(OC)c(OC)c2)ccc1O` [ARCTIGENIN], for which the ΔTm was 0.6 °C in [1]; 0.4 °C in [2]; 0.1 °C in test [3]; -0.3 °C in test [4]; -0.2 °C in [5]; -0.1 °C in test [6]. The ΔTm in [7] is 0.3 °C; in [8], 0.2 °C; in test [9], 0.2 °C; in test [10] it was -0.3 °C; in test [11], 0.8 °C; in [12], 0.6 °C. Further, the figures for the ΔTm in [13], in test [14] and in [15] were 0.2 °C, -0.1 °C and 0.7 °C, respectively.

Regarding `O=c1cc(N2CCOCC2)oc2c1ccc1ccccc12`, the ΔTm in test [1] stood at 0.3 °C; in [2] it was 0.2 °C; in test [3], 0.6 °C; in test [4] it was 1.8 °C; in test [5], 1.1 °C; in [6], 0.8 °C. The ΔTm was 0 °C in test [7]; 1.2 °C in [8]; 0.4 °C in test [9]; 0.5 °C in test [10]; 0.2 °C in [11]; 2 °C in test [12]. In addition, the ΔTm turned out to be 0.2 °C in [13], 0.3 °C in test [14] and 0 °C in test [15].

As for `CC(C)n1cnc2/c(=N/c3cccc(Cl)c3)nc(NCCO)[nH]c21`, the ΔTm in test [1] stood at 0.4 °C; in [2] it was 0 °C; in test [3], 4.5 °C; in test [4] it was 2.2 °C; in test [5], 0.8 °C; in [6], 3.7 °C. Also, the ΔTm in test [7] was determined as 0.3 °C; in test [8] it was 0.4 °C; in [9], 0.2 °C; in [10], 2.1 °C; in [11], 2.9 °C; in [12], 2.3 °C. Besides, the figures for the ΔTm in [13], in test [14] and in [15] were 1.4 °C, 2.1 °C and 0.5 °C, respectively.

Regarding `NCCNS(=O)(=O)c1cccc2c(Cl)cccc12`, the ΔTm was 0.4 °C in [1]; -0.1 °C in test [2]; 0 °C in test [3]; 3.2 °C in test [4]; 0.1 °C in [5]; 0.2 °C in test [6]. Also, the ΔTm in test [7] is -0.1 °C; in test [8], 0.4 °C; in test [9] it was 0.3 °C; in [10], 0 °C; in test [11], 0.5 °C; in [12], 3.2 °C. Also, the ΔTm came to 2.5 °C in [13], 0.2 °C in [14] and 0 °C in test [15].

Consider `C[C@@H]1C[C@H]2O[C@@H]2/C=C\C=C\C(=O)Cc2c(Cl)c(O)cc(O)c2C(=O)O1` [RADICICOL], for which the ΔTm was 0.1 °C in [1]; -0.5 °C in [2]; 0 °C in test [3]; -0.3 °C in test [4]; -0.3 °C in test [5]; -0.2 °C in test [6]. In addition, the ΔTm in test [7] is 0 °C; in test [8], -0.2 °C; in [9], 0.4 °C; in test [10], -0.2 °C; in test [11], 1.3 °C; in test [12], 0.5 °C. For the same molecule, the ΔTm in test [13] was 0.7 °C; in [14] it was 0.9 °C; in test [15] it was -0.2 °C.

As to `CCCNC(=O)Nc1ccc(Oc2ncnc3cc(OC)c(OC)cc23)cc1Cl` [KRN-633], the ΔTm in test [1] was determined as 0.8 °C; in [2] it was 0.6 °C; in test [3], 0.5 °C; in test [4] it was 1.3 °C; in test [5] it was 0.1 °C; in [6] it was 1 °C. Besides, the ΔTm in test [7] stood at 0 °C; in test [8], 0.3 °C; in test [9], 1.2 °C; in test [10], 1.2 °C; in test [11], 0.5 °C; in test [12], 4.9 °C. For the same molecule, the figures for the ΔTm in test [13], in test [14] and in [15] were 1 °C, 10.7 °C and 0.3 °C, respectively.

Regarding `CN(C)c1ncnc2nc[nH]c12` [DIMETHYLADENINE], the ΔTm is 0 °C in test [1]; 0.1 °C in [2]; 0.5 °C in test [3]; 0.9 °C in test [4]; 0.7 °C in [5]; 0.9 °C in [6]. Also, the ΔTm was 0.2 °C in test [7]; 2.8 °C in test [8]; -0.1 °C in [9]; 0.1 °C in [10]; 0.5 °C in test [11]; 0.9 °C in test [12]. Also, the ΔTm in test [13] was found to be 0.7 °C; in test [14] it was 0.8 °C; in test [15], 0 °C.

On to `Cc1cc(C=C2C(=O)C=CC2=O)cc(C)c1O`, for which the ΔTm is -0.1 °C in test [1]; -3.4 °C in test [2]; 0.5 °C in [3]; 0.6 °C in test [4]; -2.9 °C in test [5]; -7.1 °C in [6]. Further, the ΔTm in test [7] is 7.9 °C; in test [8] it was 2.6 °C; in [9], -1.6 °C; in [10], 0.4 °C; in test [11], 0.7 °C; in [12], 3.6 °C. The ΔTm is 0.5 °C in test [13], -7.9 °C in test [14] and -3.1 °C in test [15].
